Reference: PMC3914206

Assays:
Assay type in all cases: binding
panel of 442 kinases [1] = molecular target: T1, panel of 442 kinases (Homo sapiens, UniProt P78362); settings: kinase SRPK2; compound concentration 10 µM
T1 construct: purchased KINOMEscan
Text: (§1) We assessed the selectivity of members of this scaffold using the KINOMEscan methodology across a near comprehensive panel of 442 kinases [[18,27]].

panel of 442 kinases [2] = molecular target: T2, panel of 442 kinases (Homo sapiens, UniProt Q6P3R8); settings: Compound Concentration 10 µM
T2 construct: purchased KINOMEscan
T2 sequence (Q6P3R8 1-708): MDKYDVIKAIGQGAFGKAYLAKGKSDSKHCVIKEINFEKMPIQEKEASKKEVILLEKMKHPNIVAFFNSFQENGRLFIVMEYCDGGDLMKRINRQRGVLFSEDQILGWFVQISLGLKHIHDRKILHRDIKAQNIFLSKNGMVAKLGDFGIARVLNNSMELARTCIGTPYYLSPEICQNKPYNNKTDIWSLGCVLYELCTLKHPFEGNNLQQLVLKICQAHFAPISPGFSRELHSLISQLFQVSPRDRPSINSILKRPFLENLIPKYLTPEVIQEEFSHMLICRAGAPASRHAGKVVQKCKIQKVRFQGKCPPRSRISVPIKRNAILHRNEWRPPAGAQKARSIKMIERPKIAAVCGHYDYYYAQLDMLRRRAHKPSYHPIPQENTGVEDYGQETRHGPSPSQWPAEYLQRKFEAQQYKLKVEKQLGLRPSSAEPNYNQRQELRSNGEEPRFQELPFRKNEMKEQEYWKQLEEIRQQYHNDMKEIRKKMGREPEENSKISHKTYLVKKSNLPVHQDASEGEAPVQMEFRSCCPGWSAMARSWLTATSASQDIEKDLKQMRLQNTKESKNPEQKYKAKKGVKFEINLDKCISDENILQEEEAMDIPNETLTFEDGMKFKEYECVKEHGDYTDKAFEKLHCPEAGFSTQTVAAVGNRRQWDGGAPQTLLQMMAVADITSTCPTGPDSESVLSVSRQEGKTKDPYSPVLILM
Text: as §1

panel of 442 kinases [3] = molecular target: T3, panel of 442 kinases (Homo sapiens, UniProt O60331); settings: Compound Concentration 10 µM
T3 construct: purchased KINOMEscan
Text: as §1

T3 sequence (O60331 whole entry): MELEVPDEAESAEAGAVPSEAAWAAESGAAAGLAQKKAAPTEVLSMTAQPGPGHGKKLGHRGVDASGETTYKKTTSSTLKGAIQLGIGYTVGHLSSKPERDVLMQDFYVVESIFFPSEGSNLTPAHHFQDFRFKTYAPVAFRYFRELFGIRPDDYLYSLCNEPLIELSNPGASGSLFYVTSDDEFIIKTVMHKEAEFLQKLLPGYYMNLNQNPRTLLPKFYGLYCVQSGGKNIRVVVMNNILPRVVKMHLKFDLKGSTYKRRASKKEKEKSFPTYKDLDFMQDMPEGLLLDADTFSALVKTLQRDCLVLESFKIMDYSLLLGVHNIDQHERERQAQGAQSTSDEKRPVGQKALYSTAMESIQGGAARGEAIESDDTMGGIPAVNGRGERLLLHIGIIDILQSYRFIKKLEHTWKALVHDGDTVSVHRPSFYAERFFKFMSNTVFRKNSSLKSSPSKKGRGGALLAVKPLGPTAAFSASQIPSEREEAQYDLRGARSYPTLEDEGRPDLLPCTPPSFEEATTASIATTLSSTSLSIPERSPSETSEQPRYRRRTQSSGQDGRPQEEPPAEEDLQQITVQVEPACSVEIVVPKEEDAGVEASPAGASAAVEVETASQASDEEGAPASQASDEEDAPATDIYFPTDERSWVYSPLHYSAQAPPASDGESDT
T1 sequence (P78362 whole entry): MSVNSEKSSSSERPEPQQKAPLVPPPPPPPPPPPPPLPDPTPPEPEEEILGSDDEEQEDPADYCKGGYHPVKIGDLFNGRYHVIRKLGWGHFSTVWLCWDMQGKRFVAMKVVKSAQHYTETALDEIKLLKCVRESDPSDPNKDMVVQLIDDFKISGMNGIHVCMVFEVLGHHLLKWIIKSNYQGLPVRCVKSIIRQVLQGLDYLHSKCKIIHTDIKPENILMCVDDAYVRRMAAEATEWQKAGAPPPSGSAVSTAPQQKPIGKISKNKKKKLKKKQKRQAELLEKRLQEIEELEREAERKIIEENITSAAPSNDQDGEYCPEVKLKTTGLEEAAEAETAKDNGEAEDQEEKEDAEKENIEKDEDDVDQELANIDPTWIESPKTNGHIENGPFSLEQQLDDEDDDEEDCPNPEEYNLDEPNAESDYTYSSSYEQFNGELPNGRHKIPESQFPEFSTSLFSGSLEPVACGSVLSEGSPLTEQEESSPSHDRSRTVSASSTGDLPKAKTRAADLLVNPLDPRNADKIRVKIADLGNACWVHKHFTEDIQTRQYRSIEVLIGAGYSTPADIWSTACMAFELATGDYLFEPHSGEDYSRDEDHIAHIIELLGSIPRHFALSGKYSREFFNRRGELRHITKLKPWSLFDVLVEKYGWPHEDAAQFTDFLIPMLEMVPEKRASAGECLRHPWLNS

Structure (SMILES) | % Ctrl, SRPK2 (panel of 442 kinases [1]) | KINOMEscan: NEK5 (panel of 442 kinases [2]) | KINOMEscan: PIP5K1C (panel of 442 kinases [3])
COc1cc(C(=O)N2CCC(N3CCN(C)CC3)CC2)ccc1Nc1ncc2c(n1)N(C)c1ccccc1C(=O)N2C [15 (LRRK2-IN-1)] | 100 % Ctrl | 100 | 96
COc1cc(C(=O)N2CCC(N3CCN(C)CC3)CC2)ccc1Nc1ncc2c(n1)N1CCc3cccc(c31)C(=O)N2C [Compound 24] | 98 % Ctrl | 57 | 6.3
COc1cc(C(=O)N2CCC(N3CCN(C)CC3)CC2)ccc1Nc1ncc2c(n1)N(C1CCCC1)c1ccccc1C(=O)N2C [Compound 25, 11-cyclopentyl-2-((2-methoxy-4-(4-(4-methylpiperazin-1-yl)piperidine-1-carbonyl)phenyl)amino)-5-methyl-5H-benzo[e]pyrimido[5,4-b][1,4]diazepin-6(11H)-one] | 86 % Ctrl | 100 | 100
CCOc1cc(C(=O)N2CCC(N3CCN(C)CC3)CC2)ccc1Nc1ncc2c(n1)N(C1CCCC1)c1ccccc1C(=O)N2C [Compound 26] | 100 % Ctrl | 100 | 100
